Tests used:
Assay type in all cases: in vivo
Settings in all cases: 50 ppm, 100 = 100% disease control, 0 = no control
Botrytis cinerea = test: Test E: tomato Botrytis, preventive spray on tomato seedlings
Outline: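 Preventive test: seedlings sprayed to run-off with compound in acetone/water (50/50) plus 250 ppm PEG400, inoculated one day later with B. cinerea spores. Held 48 h saturated at 20° C, then 3 days at 24° C; disease control scored visually from 0 to 100 versus controls.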

[1] = test system: Blumeria graminis f. sp. tritici; test: Test C: wheat powdery mildew, preventive spray on wheat seedlings
Outline: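 Preventive test: inoculation with spore dust came one day after spraying seedlings to run-off with ppm suspensions in acetone/water (50/50) plus 250 ppm PEG400 surfactant. Visual ratings after 8 days' incubation at 20° C give percent disease control relative to controls.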

[2] = test system: Puccinia recondita f. sp. tritici; test: Test B: wheat leaf rust, preventive spray on wheat seedlings
Outline: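 Preventive test: compound in acetone/water 50/50 with 250 ppm PEG400 was sprayed onto wheat seedlings one day before inoculation with leaf rust spores. After 24 h in saturated air and 7 days in a growth chamber, both at 20 °C, disease control was scored from 0 to 100 against controls.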

Alternaria solani = test: Test F: tomato early blight, preventive spray on tomato seedlings
Outline: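 Preventive test: one day after the compound spray, seedlings were inoculated with A. solani, incubated saturated at 27 °C for 48 h, then kept at 20 °C for 3 days. Test suspensions contained acetone/water 50/50 with 250 ppm PEG400 surfactant. Visual ratings run from 0 (no control) to 100 (full control).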

Phakopsora pachyrhizi = test: Test D: Asian soybean rust, preventive spray on soybean seedlings
Outline: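 Compounds in acetone/water (50/50) with 250 ppm PEG400, dosed in ppm, sprayed to run-off on soybean seedlings; inoculated with P. pachyrhizi spores next day. Held 24 h at 22 °C in saturated air, then 8 days at 22 °C; visual rating of disease control, 0–100, relative to untreated controls.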

Septoria tritici = test: Test A: wheat leaf blotch, preventive spray on wheat seedlings
Outline: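 Preventive test: one day after spraying seedlings to run-off (concentrations in ppm; acetone/water, 250 ppm PEG400), Septoria tritici spores applied. Scored after 48 h humid incubation at 24 °C plus 17 days at 20 °C, as percent disease control versus untreated controls (100 = full control).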

SMILES | Test E disease control rating (Botrytis cinerea) [%] | Test C disease control rating [1] [%] | Test B disease control rating [2] [%] | Test F disease control rating (Alternaria solani) [%] | Test D disease control rating (Phakopsora pachyrhizi) [%] | Test A disease control rating (Septoria tritici) [%]
Cc1nn(C)c(Nc2c(Cl)cc(Cl)cc2[N+](=O)[O-])c1-c1ccc(Cl)cc1Cl [compound 146] | 0 | 0 | 98 | 40 | 0 | 97
Cc1cc(F)c(Nc2c(-c3c(F)cc(F)cc3Cl)c(C)nn2C)c([N+](=O)[O-])c1 [compound 193] | 99 | 100 | 100 | 100 | 99 | 100
Cc1nn(C)c(Nc2ccc(Cl)cc2[N+](=O)[O-])c1-c1ccc(F)cc1F [compound 78] | 68 | 95 | 89 | 0 | 0 | 100
COc1cc(F)c(-c2c(C)nn(C)c2Nc2c(Cl)cccc2[N+](=O)[O-])c(F)c1 [compound 160] | 100 | 96 | 100 | 99 | 86 | 98
Cc1nn(C)c(Nc2c(Cl)cc(Cl)cc2[N+](=O)[O-])c1-c1ccc(F)cc1Cl [compound 59] | 99 | 99 | 100 | 92 | 96 | 100
Cc1cc(F)c(Nc2c(-c3c(F)cc(F)cc3F)c(C)nn2C)c([N+](=O)[O-])c1 [compound 194] | 99 | 100 | 100 | 100 | 99 | 100
Cc1ccc(Nc2c(-c3ccc(F)cc3Br)c(C)nn2C)c([N+](=O)[O-])c1 [compound 90] | 99 | 87 | 95 | 9 | 0 | 100
Cc1nn(C)c(Nc2c(Br)cccc2[N+](=O)[O-])c1-c1ccc(F)cc1Cl [compound 110] | 99 | 56 | 98 | 0 | 73 | 100
Cc1nn(C)c(Nc2c(F)cc(F)cc2[N+](=O)[O-])c1-c1ccc(F)cc1Br [compound 51] | 98 | 100 | 100 | 99 | 79 | 100
COc1ccc(Nc2c(-c3ccc(C#N)cc3Cl)c(C)nn2C)c([N+](=O)[O-])c1 [compound 124] | 100 | 99 | 100 | 99 | 25 | 100
CCc1nn(C)c(Nc2c(Cl)cc(Br)cc2[N+](=O)[O-])c1-c1ccc(F)cc1Cl [compound 128] | 99 | 96 | 98 | 33 | 31 | 100
Cc1nn(C)c(Nc2ccc(OC(F)F)cc2[N+](=O)[O-])c1-c1ccc(F)cc1Cl [compound 28] | 99 | 69 | 68 | 0 | 0 | 91
Cc1cc(Cl)c(Nc2c(-c3ccc(F)cc3Cl)c(C)nn2C)c([N+](=O)[O-])c1 [compound 31] | 99 | 100 | 100 | 76 | 98 | 100
Cc1cccc([N+](=O)[O-])c1Nc1c(-c2ccc(Cl)cc2Cl)c(C)nn1C [compound 144] | 0 | 35 | 68 | 0 | 69 | 100
Cc1nn(C)c(Nc2c(F)cc(F)cc2[N+](=O)[O-])c1-c1c(F)cccc1F [compound 75] | 57 | 90 | 99 | 98 | 0 | 100
COc1cc(Cl)c(Nc2c(-c3ccc(F)cc3F)c(C)nn2C)c([N+](=O)[O-])c1 [compound 141] | 99 | 99 | 100 | 83 | 0 | 99
Cc1nn(C)c(Nc2ccc(F)cc2[N+](=O)[O-])c1-c1c(F)cccc1Cl [compound 44] | 95 | 98 | 99 | 46 | 0 | 100
COc1cc(F)c(Nc2c(-c3ccc(F)cc3Cl)c(C)nn2C)c([N+](=O)[O-])c1 [compound 85] | 94 | 97 | 100 | 98 | 96 | 100
CCc1nn(C)c(Nc2c(F)cc(C)cc2[N+](=O)[O-])c1-c1ccc(F)cc1Cl [compound 137] | 99 | 100 | 100 | 99 | 91 | 100
COc1ccc(-c2c(C)nn(C)c2Nc2c(F)cc(OC)cc2[N+](=O)[O-])c(Cl)c1 [compound 186] | 100 | 99 | 100 | 100 | 94 | 100
Cc1nn(C)c(Nc2c(Cl)cccc2[N+](=O)[O-])c1-c1ccc(C#N)cc1Cl [compound 123] | 100 | 81 | 97 | 66 | 0 | 100
CCc1nn(C)c(Nc2c(F)cc(F)cc2[N+](=O)[O-])c1-c1ccc(F)cc1Cl [compound 95] | 99 | 100 | 100 | 99 | 84 | 100
COc1ccc(Nc2c(-c3c(F)cc(F)cc3F)c(C)nn2C)c([N+](=O)[O-])c1 [compound 159] | 99 | 100 | 100 | 99 | 13 | 100
Cc1nn(C)c(Nc2c(Cl)cc(Cl)cc2[N+](=O)[O-])c1-c1ccc(F)cc1F [compound 101] | 99 | 89 | 99 | 0 | 44 | 100
Cc1cc(Cl)c(Nc2c(-c3ccc(F)cc3F)c(C)nn2C)c([N+](=O)[O-])c1 [compound 15] | 99 | 98 | 100 | 53 | 61 | 100
CCc1nn(C)c(Nc2c(Cl)cc(C)cc2[N+](=O)[O-])c1-c1ccc(F)cc1F [compound 16] | 99 | 98 | 99 | 0 | 50 | 100

From patent publication US20230148599A1, “FUNGICIDAL MIXTURES CONTAINING PYRAZOLE DERIVATIVES” (FMC Corporation, priority 2020, published 2023)
